Data taken from ChEMBL document CHEMBL1201862, “PubChem BioAssay data set” (2004).
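Test compounds were applied to cells in 96-well plates for 48 hours at 5 doses. GI50 marks 50% less growth.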 The source made the active and inactive calls. Rule as the data show it: active = GI50 up to about 1.1 µM and inactive = higher.

Assays:
Assay in all cases: NCI anticancer screen, dose series, 48 h
CAKI-1 = test system: CAKI-1
DU-145 = test system: DU-145
EKVX = test system: EKVX
HCT-116 = test system: HCT-116
HL-60 = test system: HL-60
K562 = test system: K562
MCF7 = test system: MCF7
MOLT-4 = test system: MOLT-4
NCI-H460 = test system: NCI-H460
OVCAR-3 = test system: OVCAR-3
OVCAR-4 = test system: OVCAR-4
PC-3 = test system: PC-3
RPMI-8226 = test system: RPMI-8226
SF-539 = test system: SF-539
SK-MEL-2 = test system: SK-MEL-2
TK-10 = test system: TK-10
UACC-257 = test system: UACC-257
UACC-62 = test system: UACC-62
RXF 393 = test system: RXF 393

| Structure (SMILES) | GI50 (CAKI-1) | GI50 (DU-145) | GI50 (EKVX) | GI50 (HCT-116) | GI50 (HL-60) | GI50 (K562) | GI50 (MCF7) | GI50 (MOLT-4) | GI50 (NCI-H460) | GI50 (OVCAR-3) | GI50 (OVCAR-4) | GI50 (PC-3) | GI50 (RPMI-8226) | GI50 (SF-539) | GI50 (SK-MEL-2) | GI50 (TK-10) | GI50 (UACC-257) | GI50 (UACC-62) | GI50 (RXF 393) |
| --- | --- | --- | --- | --- | --- | --- | --- | --- | --- | --- | --- | --- | --- | --- | --- | --- | --- | --- | --- |
| NC(=S)SCCC(=O)O | > 100 µM (inactive) | > 100 µM (inactive) | > 100 µM (inactive) | > 100 µM (inactive) | > 100 µM (inactive) | > 100 µM (inactive) | > 100 µM (inactive) | > 100 µM (inactive) | > 100 µM (inactive) | > 100 µM (inactive) | > 100 µM (inactive) | > 100 µM (inactive) | > 100 µM (inactive) | > 100 µM (inactive) | > 100 µM (inactive) | > 100 µM (inactive) | > 100 µM (inactive) | > 100 µM (inactive) |  |
| CCC1=[N+](CC)CCN1CC | > 100 µM (inactive) | > 100 µM (inactive) | > 100 µM (inactive) | > 100 µM (inactive) | > 100 µM (inactive) | > 100 µM (inactive) | > 100 µM (inactive) | > 100 µM (inactive) | > 100 µM (inactive) | > 100 µM (inactive) | > 100 µM (inactive) | > 100 µM (inactive) | > 100 µM (inactive) | > 100 µM (inactive) | > 100 µM (inactive) | > 100 µM (inactive) | > 100 µM (inactive) |  | > 100 µM (inactive) |
| COCn1c2ccc(OC(C)=O)cc2c2c(=O)oc(N(C)C)nc21 | > 100 µM (inactive) | > 100 µM (inactive) | > 100 µM (inactive) | > 100 µM (inactive) | > 100 µM (inactive) | > 100 µM (inactive) | > 100 µM (inactive) | > 100 µM (inactive) | > 100 µM (inactive) |  | > 100 µM (inactive) | > 100 µM (inactive) | > 100 µM (inactive) | > 100 µM (inactive) | > 100 µM (inactive) | > 100 µM (inactive) | > 100 µM (inactive) | > 100 µM (inactive) | > 100 µM (inactive) |
| O=c1oc2ccccc2cc1-c1cn2c(n1)sc1ccccc12 | > 100 µM (inactive) | > 100 µM (inactive) | 2.33 µM (inactive) | 75.5 µM (inactive) | > 100 µM (inactive) | > 100 µM (inactive) | 4.75 µM (inactive) | > 100 µM (inactive) | > 100 µM (inactive) | > 100 µM (inactive) |  | > 100 µM (inactive) | > 100 µM (inactive) | > 100 µM (inactive) | > 100 µM (inactive) | > 100 µM (inactive) | > 100 µM (inactive) | > 100 µM (inactive) | > 100 µM (inactive) |
| CCCCCCCCCCCCCCCCCCNC(=S)NC=C1C(=O)c2ccccc2C1=O | 15.5 µM (inactive) | 6.12 µM (inactive) | 13 µM (inactive) | 4.08 µM (inactive) | 3.87 µM (inactive) |  | 12 µM (inactive) | 4.03 µM (inactive) | 12.1 µM (inactive) | 13.8 µM (inactive) |  | 3.83 µM (inactive) | 14.2 µM (inactive) | 18.3 µM (inactive) |  | 16.6 µM (inactive) | 17.9 µM (inactive) |  |  |
| CCOC(=O)C(Cc1c2ccccc2cc2ccccc12)(NC(C)=O)C(=O)OCC | 20 µM (inactive) | > 92.5 µM (inactive) | > 100 µM (inactive) | 48.9 µM (inactive) | 34.4 µM (inactive) | > 69.8 µM (inactive) | 2.99 µM (inactive) | 25.8 µM (inactive) | > 100 µM (inactive) | > 64.7 µM (inactive) | 40.4 µM (inactive) | 50 µM (inactive) | > 100 µM (inactive) | > 64.6 µM (inactive) | > 100 µM (inactive) | > 100 µM (inactive) | > 100 µM (inactive) |  | 42.7 µM (inactive) |
| C[C@H]1ON2CCC[C@@H]2[C@@H]1C(=O)N1C2CC3CCC2(CS1(=O)=O)C3(C)C (some centres not stated) | > 100 µM (inactive) | > 100 µM (inactive) | > 100 µM (inactive) | > 100 µM (inactive) | 0.295 µM (active) | > 100 µM (inactive) | > 100 µM (inactive) |  | > 100 µM (inactive) | > 100 µM (inactive) | > 100 µM (inactive) | > 100 µM (inactive) |  | > 100 µM (inactive) | > 100 µM (inactive) | > 100 µM (inactive) | > 100 µM (inactive) | > 100 µM (inactive) | > 100 µM (inactive) |
| Cc1ccc(-n2nnc3c(NNc4ccccc4)n[nH]c(=O)c32)cc1 | > 100 µM (inactive) | > 100 µM (inactive) | 80.7 µM (inactive) | 82.8 µM (inactive) | 84.7 µM (inactive) | 48.3 µM (inactive) | 35.3 µM (inactive) | 44 µM (inactive) | 30.8 µM (inactive) |  | 36.9 µM (inactive) | 78.2 µM (inactive) | > 100 µM (inactive) | > 100 µM (inactive) | 67.5 µM (inactive) | 28.1 µM (inactive) | > 100 µM (inactive) |  |  |
